# Literature values, collected in patent US20010014685A1, “Injectable pharmaceutical composition for treatment and reversal of erectile dysfunction” (USA DOCTORS PRODUCTS, INC., priority 1998, published 2001).
# Tested on: erectile dysfunction
# Conditions: injectable products including only prostaglandin-E1 / existing preparations
structure (smiles),measurement,value
CCCCC[C@H](O)/C=C/[C@H]1[C@H](O)CC(=O)[C@@H]1CCCCCCC(=O)O [prostaglandin-E1],efficacy for treatment of erectile dysfunction,≤ 50%
